Assay results published in patent US20090076050A1, “SYNERGISTIC TUMOR-KILLING EFFECT OF RADIATION AND BERBERINE COMBINED TREATMENT IN LUNG CANCER” (CHUNG SHAN MEDICAL U., priority 2007, published 2009).
Residues, ends and D or L forms follow the SMILES beside them. *: point of attachment. Cbz = O=C(OCc1ccccc1)*; CH2F = FC*

System: A549 cells
Test: inhibition assay with caspase and autophagy inhibitors on cells co-treated with berberine and IR
Format: cell-based, human
Procedure: Berberine has been reported to induce cell death in several cancer cells via mitochondrial disruption (Lin J P, et al. World J Gastroenterol 2006; 12:21-28.). Therefore, mitochondrial membrane potential was next measured with JC-1. Mitochondria membrane potential (Δ Ψm), the lipophilic cationic probe fluorochrome JC-1 (Invitrogen) was used. […] After a treatment of radiation (6 Gy) for 24 h in the absence or presence of 1.0-10 μM berberine, cells were rinsed with DMEM, and JC-1 (5 μmol/L) was loaded. Determination of Δ Ψm was also carried out with a FACScan Flow Cytometer. […] It has been reported that depolarized mitochondria would move into autophagic vacuoles in response to appropriate stimulation; thus, mitochondria dysfunction may be a point of overlap between apoptotic and autophagocytic processes (Bras M, et al. Biochemistry (Mosc) 2005; 70:231-39). […] On the other hand, beclin-1 siRNA and 3-MA (autophagy inhibitor) blocked the cell death induced by 5.0 μM berberine combined with 6 Gy IR (p<0.001). As a consequence, berberine sensitized A549 cells to IR damage via inducing autophagic cell death.

## COC(=O)C[C@H](NC(=O)[C@H](C)NC(=O)[C@@H](NC(=O)OCc1ccccc1)C(C)C)C(=O)CF [z-VAD-fmk] (Cbz-Val-Ala-Asp(OMe)-CH2F)
A549, berberine and IR co-treatment, p=0.15
  effect of inhibitor on cell viability of cells co-treated with berberine and IR: did not significantly affect

## Cn1cnc(N)c2ncnc1-2 [3-MA, 3-methyladenine]
A549, 5.0 μM berberine combined with 6 Gy IR, p<0.001
  effect of inhibitor on cell death induced by berberine combined with IR: blocked
